In ChEMBL document CHEMBL1201862, “PubChem BioAssay data set” (2004):
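Five compound concentrations were applied to cells in 96-well plates for 48 hours; endpoints were derived by simple linear interpolation of the resulting dose-response curve. GI50 marks 50% less growth.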 The source made the active and inactive calls. Rule as the data show it: active = GI50 up to about 1.1 µM and inactive = higher.

Tests used:
Assay in all cases: inhibition of tumour cell growth, NCI panel, 48 h
OVCAR-8 = test system: OVCAR-8
MCF7 = test system: MCF7
SW-620 = test system: SW-620
Hs-578T = test system: Hs-578T
SF-268 = test system: SF-268
HOP-62 = test system: HOP-62
T47D = test system: T47D
U-251 = test system: U-251
OVCAR-3 = test system: OVCAR-3
MDA-MB-435 = test system: MDA-MB-435
NCI/ADR-RES = test system: NCI/ADR-RES
HCT-15 = test system: HCT-15
HCC 2998 = test system: HCC 2998
EKVX = test system: EKVX
SR = test system: SR
SK-OV-3 = test system: SK-OV-3
SF-295 = test system: SF-295
HT-29 = test system: HT-29
SF-539 = test system: SF-539
SK-MEL-5 = test system: SK-MEL-5

Compound | GI50 (OVCAR-8) | GI50 (MCF7) | GI50 (SW-620) | GI50 (Hs-578T) | GI50 (SF-268) | GI50 (HOP-62) | GI50 (T47D) | GI50 (U-251) | GI50 (OVCAR-3) | GI50 (MDA-MB-435) | GI50 (NCI/ADR-RES) | GI50 (HCT-15) | GI50 (HCC 2998) | GI50 (EKVX) | GI50 (SR) | GI50 (SK-OV-3) | GI50 (SF-295) | GI50 (HT-29) | GI50 (SF-539) | GI50 (SK-MEL-5)
CCCCCCCCCCCCCCCCCCNc1ccn(C2OC(COP(=O)(O)OCC3OC(n4cc(F)c(NCCCCCCCCCCCCCCCCCC)nc4=O)CC3O)C(O)C2O)c(=O)n1 (stereo not given) | 43.6 µM (inactive) | > 100 µM (inactive) | > 100 µM (inactive) | > 100 µM (inactive) | > 100 µM (inactive) | > 100 µM (inactive) | > 100 µM (inactive) | 67 µM (inactive) | > 100 µM (inactive) | > 100 µM (inactive) | > 100 µM (inactive) | > 100 µM | 63.5 µM (inactive) | > 100 µM (inactive) | > 100 µM (inactive) | > 100 µM (inactive) | > 100 µM (inactive) | > 100 µM (inactive) | > 100 µM (inactive) | > 100 µM (inactive)
CCCCCCCCCCCCCCCCCCOC(COP(=O)(O)OCC1OC(n2cc(F)c(=O)[nH]c2=O)CC1O)COP(=O)(O)OCC1OC(n2ccc(N)nc2=O)C(O)C1O (stereo not given) | 4.51 µM (inactive) | 2.37 µM (inactive) | 60.7 µM (inactive) | > 100 µM (inactive) | 0.536 µM (active) | 1.95 µM (inactive) | > 100 µM (inactive) | 7.13 µM (inactive) | > 100 µM (inactive) | 19.5 µM (inactive) | 6.49 µM (inactive) | 31.4 µM | 0.419 µM (active) | > 100 µM (inactive) | 0.925 µM (active) | > 71.3 µM (inactive) | 2.58 µM (inactive) | 18.2 µM (inactive) | 0.863 µM (active) | > 73.5 µM (inactive)
Cc1cc(OC(=O)Nc2cccc3ccccc23)c(C(C)C)cc1C(=S)Nc1ccccc1 | 12.7 µM (inactive) | 17.4 µM (inactive) | 16.8 µM (inactive) | 12.3 µM (inactive) | 23.9 µM (inactive) | 16.6 µM (inactive) | 8.17 µM (inactive) | 18.1 µM (inactive) | 16.1 µM (inactive) | 18.1 µM (inactive) | 16.6 µM (inactive) | 10.9 µM | 20.6 µM (inactive) | 23.7 µM (inactive) | 6.49 µM (inactive) | 10.4 µM (inactive) | 0.0608 µM (active) | 18.7 µM (inactive) | 16.7 µM (inactive) | 14.4 µM (inactive)
CCNC(=O)/C(=C/c1ccc(OC)cc1)c1cc(OC)c(OC)c(OC)c1 | 21.3 µM (inactive) | 4.84 µM (inactive) | 4.52 µM (inactive) | 5.26 µM (inactive) | 13.8 µM (inactive) | 10.9 µM (inactive) | > 20.4 µM (inactive) | 7.21 µM (inactive) | 3.78 µM (inactive) | 2.09 µM (inactive) | 3 µM (inactive) | 4.11 µM | 4.68 µM (inactive) | 64.1 µM (inactive) | 4.17 µM (inactive) | 6.85 µM (inactive) | 2.98 µM (inactive) | 3.41 µM (inactive) | 7.87 µM (inactive) | 3.71 µM (inactive)
O=c1[nH]c2nccn2c(Cl)c1Br | 19.2 µM (inactive) | 42.6 µM (inactive) | 26.6 µM (inactive) | 26.9 µM (inactive) | 23.2 µM (inactive) | > 100 µM (inactive) | 14.8 µM (inactive) | 17.3 µM (inactive) | 19.8 µM (inactive) | 19.8 µM (inactive) | 22.9 µM (inactive) | 16.6 µM | 21.1 µM (inactive) | 19.7 µM (inactive) | 22.4 µM (inactive) | 29.6 µM (inactive) | > 100 µM (inactive) | 23.3 µM (inactive) | > 100 µM (inactive) | 25.2 µM (inactive)
O=C(O)c1ccccc1C1CCCc2c1[nH]c1ccccc21 (stereo not given) | 75.7 µM (inactive) | 30.1 µM (inactive) | 57.1 µM (inactive) | 86.9 µM (inactive) | 66.1 µM (inactive) | > 100 µM (inactive) | 11.4 µM (inactive) | 81.8 µM (inactive) | 83.4 µM (inactive) | 31.3 µM (inactive) | 66.1 µM (inactive) | 44.4 µM | > 100 µM (inactive) | 20.3 µM (inactive) | 47 µM (inactive) | > 100 µM (inactive) | 57 µM (inactive) | 61.4 µM (inactive) | 88.7 µM (inactive) | 36.5 µM (inactive)
Cc1cc(C)c2c(=N)c3ccccc3n(CCCCCCCCn3c4ccccc4c(=N)c4c(C)cc(C)nc43)c2n1 | 1.59 µM (inactive) | 0.586 µM (active) | 0.238 µM (active) | 1.81 µM (inactive) | 1.74 µM (inactive) | 1.23 µM (inactive) | 1.77 µM (inactive) | 0.553 µM (active) | 1.76 µM (inactive) | 1.54 µM (inactive) | 1.6 µM (inactive) | 0.2 µM | 0.631 µM (active) | 1.4 µM (inactive) | 0.127 µM (active) | 1.73 µM (inactive) | 1.5 µM (inactive) | 0.224 µM (active) | 1.78 µM (inactive) | 1.82 µM (inactive)
COc1ccc(/C=C2\C(=O)N(C3OC(COC(C)=O)C(OC(C)=O)C(OC(C)=O)C3OC(C)=O)c3ccccc3N=C2N)cc1 (stereo not given) | 19.4 µM (inactive) | 19.1 µM (inactive) | 30.7 µM (inactive) | 34.6 µM (inactive) | 32.5 µM (inactive) | 28.9 µM (inactive) | 14 µM (inactive) | 27.1 µM (inactive) | 23.2 µM (inactive) | 4.65 µM (inactive) | 20.5 µM (inactive) | 12.9 µM | 21.8 µM (inactive) | 26.8 µM (inactive) | 5.37 µM (inactive) | 27.6 µM (inactive) | 21.9 µM (inactive) | 18.8 µM (inactive) | 9.06 µM (inactive) | 11.3 µM (inactive)
CNC(=O)OCc1c(COC(=O)NC)c(C)n(-c2ccc(Br)cc2)c1C | 12.1 µM (inactive) | 11.3 µM (inactive) | 10.7 µM (inactive) | 16.2 µM (inactive) | 10.7 µM (inactive) | 13.2 µM (inactive) | 10.2 µM (inactive) | 10.7 µM (inactive) | 14.6 µM (inactive) | 16.8 µM (inactive) | 16.3 µM (inactive) | 14 µM | 15.2 µM (inactive) | 27.3 µM (inactive) | 1.38 µM (inactive) | 10.4 µM (inactive) | 13.1 µM (inactive) | 5.57 µM (inactive) | 15.4 µM (inactive) | 13.6 µM (inactive)
CCCC1=C(OC)C(=O)c2c(C)cc(Cl)nc2C1=O | 8.89 µM (inactive) | 2.47 µM (inactive) | 3.24 µM (inactive) | 3.75 µM (inactive) | 7.08 µM (inactive) | 15.5 µM (inactive) | 2.99 µM (inactive) | 6.07 µM (inactive) | 2.81 µM (inactive) | 1.84 µM (inactive) | 4.55 µM (inactive) | 3.05 µM | 7.62 µM (inactive) | 7.66 µM (inactive) | 2.11 µM (inactive) | 17 µM (inactive) | 14.7 µM (inactive) | 4.3 µM (inactive) | 7.43 µM (inactive) | 4.06 µM (inactive)
